Assay results as given in patent EP1377579B1 (Aventis Pharmaceuticals Inc., priority 2000, dated 2002).
pIC50: −log10 of the molar value. Structures can show the parent of a compound that is named as a salt.

Experiments:
cdk1/cyclin B = cdk1/cyclin B (Homo sapiens, UniProt P06493); assay: Cyclin-dependent kinase assay, cdk1/cyclin B; details: CDK1 IC50, nM, Histone H1, 10 µM ATP
cdk2/cyclin E = cdk2/cyclin E (Homo sapiens, UniProt P24941); assay: Cyclin-dependent kinase assay, cdk2/cyclin E; details: CDK2 IC50, nM, GST-pRb substrate, 10 µM ATP
HL-60 = assay: In vitro proliferation assay (MTT), HL-60; format: cell-based; details: Homo sapiens, HL-60; MTT assay; value (SD, n) where given; read-out: HL-60 Leuk. (IC50 µM)
Procedure, shortened: (§1)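 Tetrazolium (MTT) proliferation test following a 3-day treatment with compound. Read-out is optical density at 570 nm after DMSO solubilization.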

Colo-205 = assay: In vitro proliferation assay (MTT), Colo-205; format: cell-based; details: Homo sapiens, COLO 205; MTT assay; value (SD, n) where given; read-out: Colo-205 Colon (IC50 µM)
Procedure, shortened: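 Colo-205 cells were seeded at 1000–2500 cells/well and allowed to attach overnight, then exposed to compound for 3 days. Viable cells were measured by MTT reduction (2–4 h, 37 °C), with DMSO-solubilised dye read at 570 nm. IC50 was derived from concentration–response data.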

cdk4/cyclin D1 = cdk4/cyclin D1 (Homo sapiens, UniProt P11802); assay: Cyclin-dependent kinase assay, cdk4/cyclin D1; format: biochemical; details: cyclin D1/cdk4; GST-pRb substrate, 10 µM ATP
cdk4/cyclin D1, sequence (P11802 whole entry): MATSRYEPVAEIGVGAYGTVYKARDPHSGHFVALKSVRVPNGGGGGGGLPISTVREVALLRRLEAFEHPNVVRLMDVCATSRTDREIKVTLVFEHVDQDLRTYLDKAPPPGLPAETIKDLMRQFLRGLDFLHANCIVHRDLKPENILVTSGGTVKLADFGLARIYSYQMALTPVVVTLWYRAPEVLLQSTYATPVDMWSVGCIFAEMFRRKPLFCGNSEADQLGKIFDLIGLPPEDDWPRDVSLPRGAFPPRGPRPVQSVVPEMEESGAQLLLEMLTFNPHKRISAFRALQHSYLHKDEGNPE
cdk4/cyclin D1, sequence (P24385 whole entry partner): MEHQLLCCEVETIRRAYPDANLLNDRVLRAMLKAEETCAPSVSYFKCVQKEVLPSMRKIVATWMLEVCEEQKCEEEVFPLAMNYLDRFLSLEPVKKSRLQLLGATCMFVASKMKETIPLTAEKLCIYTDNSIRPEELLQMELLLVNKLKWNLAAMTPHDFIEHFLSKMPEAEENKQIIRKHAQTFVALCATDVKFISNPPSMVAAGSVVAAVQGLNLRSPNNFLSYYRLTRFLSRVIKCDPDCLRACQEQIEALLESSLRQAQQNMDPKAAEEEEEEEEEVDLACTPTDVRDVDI

NCI-H460 = assay: In vitro proliferation assay (MTT), NCI-H460; format: cell-based; details: Homo sapiens, NCI-H460; MTT assay; value (SD, n) where given; read-out: H-460 Lung (IC50 µM)
Procedure, shortened: as §1

PC-3 = assay: In vitro proliferation assay (MTT), PC-3; format: cell-based, human; details: Homo sapiens, PC-3, MTT assay; value (SD, n) where given; read-out: PC-3 Prostate (IC50 µM)
Procedure, shortened: (§2)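 IC50 values come from absorbance at 570 nm after MTT staining of cells grown with compound for 3 days. Seeding density was 1000 to 2500 cells/well, depending on the line.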

MDA-MB-435 = assay: In vitro proliferation assay (MTT), MDA-MB-435; format: cell-based, human; details: Homo sapiens, MDA-MB-435, MTT assay; value (SD, n) where given; read-out: MB-435 Breast (IC50 µM)
Procedure, shortened: as §2

Jurkat = assay: In vitro proliferation assay (MTT), Jurkat; format: cell-based; details: Homo sapiens, MTT assay, value (SD, n) where given, read-out: Jurkat Leuk. (IC50 µM)
Procedure, shortened: as §1

cdk1/cyclin B, sequence (P06493 whole entry): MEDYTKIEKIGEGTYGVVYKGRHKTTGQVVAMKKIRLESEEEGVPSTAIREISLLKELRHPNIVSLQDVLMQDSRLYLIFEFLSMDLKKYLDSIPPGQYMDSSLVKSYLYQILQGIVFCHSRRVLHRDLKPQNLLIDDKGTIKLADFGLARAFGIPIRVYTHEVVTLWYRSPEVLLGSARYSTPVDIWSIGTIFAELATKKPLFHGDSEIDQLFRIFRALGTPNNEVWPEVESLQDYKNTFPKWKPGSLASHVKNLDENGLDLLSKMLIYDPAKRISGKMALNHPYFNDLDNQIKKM
cdk1/cyclin B, sequence (P14635 whole entry partner): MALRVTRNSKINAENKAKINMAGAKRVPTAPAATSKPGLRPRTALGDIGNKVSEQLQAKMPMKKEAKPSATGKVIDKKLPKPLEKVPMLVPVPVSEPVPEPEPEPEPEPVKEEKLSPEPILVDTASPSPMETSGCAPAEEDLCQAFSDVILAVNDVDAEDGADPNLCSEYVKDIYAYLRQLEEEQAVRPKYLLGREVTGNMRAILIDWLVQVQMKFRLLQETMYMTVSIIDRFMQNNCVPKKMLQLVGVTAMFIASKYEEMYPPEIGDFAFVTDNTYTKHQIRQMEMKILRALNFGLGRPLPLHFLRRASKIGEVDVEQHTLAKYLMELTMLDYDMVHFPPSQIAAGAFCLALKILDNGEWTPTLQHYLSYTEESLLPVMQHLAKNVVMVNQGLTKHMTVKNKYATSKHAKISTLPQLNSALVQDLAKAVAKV

IC50 (cdk1/cyclin B) [nM]	IC50 (cdk2/cyclin E) [nM]	IC50 (HL-60) [µM]	IC50 (Colo-205) [µM]	pIC50 (cdk4/cyclin D1)	IC50 (NCI-H460) [µM]	IC50 (PC-3) [µM]	IC50 (MDA-MB-435) [µM]	IC50 (Jurkat) [µM]	SMILES
23	36	< 0.02	0.07	6.53	0.41	0.24	0.25	0.36	CCOc1ccc(NC(=O)N2CCC(Nc3nc(N[C@H]4CC[C@H](N)CC4)nc4c3ncn4C3CCCC3)CC2)cc1 [compound 191, trans-4-[2-(4-Amino-cyclohexylamino)-9-cyclopentyl-9H-purin-6-ylamino]-piperidine-1-carboxylic acid (4-ethoxy-phenyl)-amide dihydrochloride]
46	5	0.07	0.18	6.07	0.2	0.26	0.25	0.16	CCOC(=O)N1CCC(Nc2nc(N[C@H]3CC[C@H](N)CC3)nc3c2ncn3C2CCCC2)CC1 [compound 93, trans-4-[2-(4-Amino-cyclohexylamino)-9-cyclopentyl-9H-purin-6-ylamino]-piperidine-1-carboxylic acid ethyl ester dihydrochloride]
10	23	< 0.02	0.06	6.22	0.19	0.16	0.09	0.21	N[C@H]1CC[C@H](Nc2nc(NC3CCN(C(=O)Nc4cc(C(F)(F)F)ccc4F)CC3)c3ncn(C4CCCC4)c3n2)CC1 [compound 200, trans-4-[2-(4-Amino-cyclohexylamino)-9-cyclopentyl-9H-purin-6-ylamino]-piperidine-1-carboxylic acid (2-fluoro-5-trifluoromethyl-phenyl)-amide dihydrochloride]
70	20	0.06	0.06	6.17	0.18	0.26	0.26	0.34	CCOC(=O)c1ccccc1NC(=O)N1CCC(Nc2nc(N[C@H]3CC[C@H](N)CC3)nc3c2ncn3C2CCCC2)CC1 [compound 199, trans-2-[(1-{4-[2-(4-Amino-cyclohexylamino)-9-cyclopentyl-9H-purin-6-ylamino]-piperidin-1-yl}-methanoyl)-amino]-benzoic acid ethyl ester dihydrochloride]
28	45	0.04	0.09	6.89	0.15	0.15	0.11	0.21	N[C@H]1CC[C@H](Nc2nc(NC3CCN(C(=O)Nc4ccccc4Cl)CC3)c3ncn(C4CCCC4)c3n2)CC1 [compound 169, trans-4-[2-(4-Amino-cyclohexylamino)-9-cyclopentyl-9H-purin-6-ylamino]-piperidine-1-carboxylic acid (2-chloro-phenyl)-amide dihydrochloride]
7	60	0.03	0.12	6.36	0.14	0.15	0.17	0.21	N[C@H]1CC[C@H](Nc2nc(NC3CCN(C(=O)Nc4cc(C(F)(F)F)ccc4Cl)CC3)c3ncn(C4CCCC4)c3n2)CC1 [compound 177, trans-4-[2-(4-Amino-cyclohexylamino)-9-cyclopentyl-9H-purin-6-ylamino]-piperidine-1-carboxylic acid (2-chloro-5-trifluoromethyl-phenyl)-amide dihydrochloride]
18	42	0.04	< 0.02	6.70	0.42	0.34	0.35	0.32	N[C@H]1CC[C@H](Nc2nc(NC3CCN(C(=O)Nc4ccccc4)CC3)c3ncn(C4CCCC4)c3n2)CC1 [compound 146, trans-4-[2-(4-Amino-cyclohexylamino)-9-cyclopentyl-9H-purin-6-ylamino]-piperidine-1-carboxylic acid phenylamide dihydrochloride]
11	21	< 0.02	0.02	6.15	0.2	0.13	0.08	0.22	N[C@H]1CC[C@H](Nc2nc(NC3CCN(C(=O)Nc4cccc(Cl)c4)CC3)c3ncn(C4CCCC4)c3n2)CC1 [compound 165, trans-4-[2-(4-Amino-cyclohexylamino)-9-cyclopentyl-9H-purin-6-ylamino]-piperidine-1-carboxylic acid (3-chloro-phenyl)-amide dihydrochloride]
3	51	< 0.02	< 0.02	6.81	0.3	0.26	0.19	0.24	N[C@H]1CC[C@H](Nc2nc(NC3CCN(C(=O)Nc4cccc(Br)c4)CC3)c3ncn(C4CCCC4)c3n2)CC1 [compound 170, trans-4-[2-(4-Amino-cyclohexylamino)-9-cyclopentyl-9H-purin-6-ylamino]-piperidine-1-carboxylic acid (3-bromo-phenyl)-amide dihydrochloride]
50	46	0.02	0.03	7.36	0.14	0.13	0.11	0.13	N[C@H]1CC[C@H](Nc2nc(NC3CCN(C(=O)Nc4ccccc4F)CC3)c3ncn(C4CCCC4)c3n2)CC1 [compound 207, trans-4-[2-(4-Amino-cyclohexylamino)-9-cyclopentyl-9H-purin-6-ylamino]-piperidine-1-carboxylic acid (2-fluoro-phenyl)-amide dihydrochloride]
38	46	0.03	< 0.02	6.59	0.56	0.36	0.33	0.51	N[C@H]1CC[C@H](Nc2nc(NC3CCN(C(=O)Nc4ccc(F)cc4)CC3)c3ncn(C4CCCC4)c3n2)CC1 [compound 147, trans-4-[2-(4-Amino-cyclohexylamino)-9-cyclopentyl-9H-purin-6-ylamino]-piperidine-1-carboxylic acid (4-fluoro-phenyl)-amide dihydrochloride]
8	261	0.07	0.18	6.30	0.5	0.37	0.24	0.5	N[C@H]1CC[C@H](Nc2nc(NC3CCN(C(=O)Nc4ccc(Cl)c(C(F)(F)F)c4)CC3)c3ncn(C4CCCC4)c3n2)CC1 [compound 179, trans-4-[2-(4-Amino-cyclohexylamino)-9-cyclopentyl-9H-purin-6-ylamino]-piperidine-1-carboxylic acid (4-chloro-3-trifluoromethyl-phenyl)-amide dihydrochloride]
15	72	< 0.02	0.04	6.22	0.18	0.12	0.14	0.19	N[C@H]1CC[C@H](Nc2nc(NC3CCN(C(=O)Nc4ccc(Br)cc4)CC3)c3ncn(C4CCCC4)c3n2)CC1 [compound 162, trans-4-[2-(4-Amino-cyclohexylamino)-9-cyclopentyl-9H-purin-6-ylamino]-piperidine-1-carboxylic acid (4-bromo-phenyl)-amide dihydrochloride]
